Data reported in patent US12030883B2, “Hetero-tricyclic compounds as inhibitors of KRAS” (Incyte Corporation, priority 2021, dated 2024).

Key:
KRAS G12D [1] = target: T1, KRAS G12D (Homo sapiens, UniProt P01116, G12D); assay: KRAS_G12D pERK assay (cellular pERK HTRF assay); assay type: cell-based; parameters: host or cells: A427 or HPAF-II; conditions: KRAS G12D cells (A427, HPAF-II named in method), 2 hours incubation, Phospho-ERK 1/2 HTRF; read-out: G12D_PERK (KRAS_G12D pERK assay IC50)
Description: MIA PaCa-2 (KRAS G12C; ATCC® CRL-1420), A427 (KRAS G12D; ATCC® HTB53), HPAF-II (KRAS G12D; ATCC® CRL-1997) and NCI-H838 (KRAS WT; ATCC® CRL-5844) cells are purchased from ATCC and maintained in RPMI 1640 media supplemented with 10% FBS (Gibco/Life Technologies). The cells are plated at 5000 cells per well (8 uL) into Greiner 384-well low volume, flat-bottom, tissue culture treated white plates and incubated overnight at 37° C., 5% CO2. The next morning, test compound stock solutions are diluted in media at 3× the final concentration, and 4 uL are added to the cells. The plate is mixed by gentle rotation for 30 seconds (250 rpm) at room temperature. The cells are incubated with the KRAS G12C and G12D compounds for 4 hours or 2 hours respectively at 37° C., 5% CO2.
4 uL of 4× lysis buffer with blocking reagent (1:25) (Cisbio) are added to each well and plates are rotated gently (300 rpm) for 30 minutes at room temperature. 4 uL per well of Cisbio anti Phospho-ERK 1/2 d2 is mixed with anti Phospho-ERK 1/2 Cryptate (1:1) are added to each well, mixed by rotation and incubated overnight in the dark at room temperature. Plates are read on the Pherastar plate reader at 665 nm and 620 nm wavelengths. IC50 determination is performed by fitting the curve of inhibitor percent inhibition versus the log of the inhibitor concentration using the GraphPad Prism 7 software.

KRAS G12D [2] = target: T1, KRAS G12D; assay: GDP-GTP exchange assay, KRAS G12D (bodipy-GDP/GppNHp, SOS1); assay type: biochemical; conditions: bodipy-loaded KRAS G12D 2.5 nM, 4 hours pre-incubation with inhibitor, SOS1 150 nM, GppNHp 500 uM; read-out: G12D_exchange (KRAS_G12D exchange assay IC50)
Description: (§1) The inhibitor potency of the exemplified compounds was determined in a fluorescence based guanine nucleotide exchange assay, which measures the exchange of bodipy-GDP (fluorescently labeled GDP) for GppNHp (Non-hydrolyzable GTP analog) to generate the active state of KRAS in the presence of SOS1 (guanine nucleotide exchange factor). Inhibitors were serially diluted in DMSO and a volume of 0.1 μL was transferred to the wells of a black low volume 384-well plate. Five μL/well volume of bodipy-loaded KRAS G12D or G12V diluted to a final concentration of 2.5 nM in assay buffer (25 mM Hepes pH 7.5, 50 mM NaCl, 10 mM MgCl2 and 0.01% Brij-35) was added to the plate and pre-incubated with inhibitor for 4 hours (G12D) or 3 hours (G12V) at ambient temperature. A cyclic peptide described to selectively bind G12D mutant (Sakamoto et al., BBRC 484.3 (2017), 605-611) or internal compounds with confirmed binding were used as positive controls in the assay plates. The exchange was initiated by the addition of a 5 μL/well volume containing 1 mM GppNHp and 300 nM SOS1 in assay buffer. The 10 μL/well reaction concentration of the bodipy-loaded KRAS G12D or G12V, GppNHp, and SOS1 were 2.5 nM, 500 uM, and 150 nM, respectively.
(§2) Either GraphPad prism or XLfit was used to analyze the data. The IC50 values were derived by fitting the data to a four parameter logistic equation producing a sigmoidal dose-response curve with a variable Hill coefficient. Prism equation: Y=Bottom+(Top−Bottom)/(1+10^((LogIC50-X)*Hill slope)); XLfit equation: Y=(A+((B−A)/(1+((X/C)^D)))) where X is the logarithm of inhibitor concentration and Y is the response.

KRAS G12V = KRAS G12V (Homo sapiens, UniProt P01116, G12V); assay: GDP-GTP exchange assay, KRAS G12V (bodipy-GDP/GppNHp, SOS1); assay type: biochemical; conditions: bodipy-loaded KRAS G12V 2.5 nM, 3 hours pre-incubation with inhibitor, SOS1 150 nM, GppNHp 500 uM; read-out: G12V_exchange (KRAS_G12V exchange assay IC50)
Sequence of KRAS G12V (P01116 1-188 isoform P01116-2 G12V): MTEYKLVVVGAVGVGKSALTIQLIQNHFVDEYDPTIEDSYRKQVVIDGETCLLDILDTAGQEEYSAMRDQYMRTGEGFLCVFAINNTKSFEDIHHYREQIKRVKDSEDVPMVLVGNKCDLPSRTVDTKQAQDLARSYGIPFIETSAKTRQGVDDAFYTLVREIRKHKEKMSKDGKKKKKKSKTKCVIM
Description: as §1, §2

T1 sequence (P01116 1-188 isoform P01116-2 G12D): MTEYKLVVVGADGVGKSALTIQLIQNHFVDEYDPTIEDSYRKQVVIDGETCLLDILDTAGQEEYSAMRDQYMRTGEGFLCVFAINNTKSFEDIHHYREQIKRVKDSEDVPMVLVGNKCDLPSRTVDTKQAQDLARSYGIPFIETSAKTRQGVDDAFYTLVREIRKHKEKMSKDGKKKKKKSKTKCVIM

N#CCCc1cc2c3c(cnc2c(F)c1-c1cc(O)cc2ccccc12)NC(=O)CN3[C@@H]1[C@@H]2CN[C@H]1C2 (racemic) [Example 20a, 3-(1-((endo)-2-Azabicyclo[2.1.1]hexan-5-yl)-7-fluoro-8-(3-hydroxynaphthalen-1-yl)-3-oxo-1,2,3,4-tetrahydropyrazino[2,3-c]quinolin-9-yl)propanenitrile]
IC50 (KRAS G12D [1]): 5000 to 10000 nM | IC50 (KRAS G12D [2]): ≤ 100 nM | IC50 (KRAS G12V): ≤ 100 nM

C[C@H](Oc1nc2c(F)c(-c3c[nH]c4ccccc34)c(CCC#N)cc2c2c1NC(=O)CN2C1C2CNC1C2)[C@@H]1CCCN1C (single isomer, unassigned) [Example 1a]
IC50 (KRAS G12D [1]): ≤ 100 nM | IC50 (KRAS G12D [2]): ≤ 100 nM | IC50 (KRAS G12V): ≤ 100 nM

C[C@H](Oc1nc2c(F)c(-c3cccc(Cl)c3Cl)c(CCC#N)cc2c2c1NC(=O)CN2C1C2CNC1C2)[C@@H]1CCCN1C (single isomer, unassigned) [Example 2b]
IC50 (KRAS G12D [1]): 100 to 1000 nM | IC50 (KRAS G12D [2]): ≤ 100 nM | IC50 (KRAS G12V): ≤ 100 nM

C[C@H](Oc1nc2c(F)c(-c3cccc4ccc(F)cc34)c(CCC#N)cc2c2c1NC(=O)CN2C1C2CNC1C2)[C@@H]1CCCN1C (single isomer, unassigned) [Example 3a]
IC50 (KRAS G12D [1]): ≤ 100 nM | IC50 (KRAS G12D [2]): ≤ 100 nM | IC50 (KRAS G12V): ≤ 100 nM

C[C@H](Oc1nc2c(F)c(-c3cc(O)cc4ccc(F)cc34)c(CCC#N)cc2c2c1NC(=O)CN2C1C2CNC1C2)[C@@H]1CCCN1C (single isomer, unassigned) [Example 4c]
IC50 (KRAS G12D [1]): ≤ 100 nM | IC50 (KRAS G12D [2]): ≤ 100 nM | IC50 (KRAS G12V): ≤ 100 nM

C[C@H](Oc1nc2c(F)c(-c3cc(O)cc4ccc(F)cc34)c(CCC#N)cc2c2c1NC(=O)CN2C1C2CNC1C2)[C@@H]1CCCN1C (single isomer, unassigned) [Example 4d]
IC50 (KRAS G12D [1]): 1000 to 5000 nM | IC50 (KRAS G12D [2]): ≤ 100 nM | IC50 (KRAS G12V): 100 to 1000 nM

CNC(=O)c1ccc(-c2nc3c(F)c(-c4cc(O)cc5ccccc45)c(CCC#N)cc3c3c2NC(=O)CN3C2C3CNC2C3)cn1 (single isomer, unassigned) [Example 5a, 5-(1-((endo)-2-Azabicyclo[2.1.1]hexan-5-yl)-9-(2-cyanoethyl)-7-fluoro-8-(3-hydroxynaphthalen-1-yl)-3-oxo-1,2,3,4-tetrahydropyrazino[2,3-c]quinolin-5-yl)-N-methylpicolinamide]
IC50 (KRAS G12D [1]): 5000 to 10000 nM | IC50 (KRAS G12D [2]): ≤ 100 nM | IC50 (KRAS G12V): ≤ 100 nM

N#CCCc1cc2c3c(c(-c4ccc5cccnc5c4)nc2c(F)c1-c1cc(O)cc2ccccc12)NC(=O)CN3C1C2CNC1C2 (single isomer, unassigned) [Example 6a, 3-(1-((endo)-2-Azabicyclo[2.1.1]hexan-5-yl)-7-fluoro-8-(3-hydroxynaphthalen-1-yl)-3-oxo-5-(quinolin-7-yl)-1,2,3,4-tetrahydropyrazino[2,3-c]quinolin-9-yl)propanenitrile]
IC50 (KRAS G12D [1]): 1000 to 5000 nM | IC50 (KRAS G12D [2]): ≤ 100 nM | IC50 (KRAS G12V): ≤ 100 nM

Cn1cnc(-c2nc3c(F)c(-c4cc(O)cc5ccccc45)c(CCC#N)cc3c3c2NC(=O)CN3C2C3CNC2C3)c1 (single isomer, unassigned) [Example 7a, 3-(1-((endo)-2-Azabicyclo[2.1.1]hexan-5-yl)-7-fluoro-8-(3-hydroxynaphthalen-1-yl)-5-(1-methyl-1H-imidazol-4-yl)-3-oxo-1,2,3,4-tetrahydropyrazino[2,3-c]quinolin-9-yl)propanenitrile]
IC50 (KRAS G12D [1]): 100 to 1000 nM | IC50 (KRAS G12D [2]): ≤ 100 nM | IC50 (KRAS G12V): ≤ 100 nM

CNC(=O)c1cccc(-c2nc3c(F)c(-c4cc(O)cc5ccccc45)c(CCC#N)cc3c3c2NC(=O)CN3C2C3CNC2C3)c1 (single isomer, unassigned) [Example 9a, 3-(1-((endo)-2-Azabicyclo[2.1.1]hexan-5-yl)-9-(2-cyanoethyl)-7-fluoro-8-(3-hydroxynaphthalen-1-yl)-3-oxo-1,2,3,4-tetrahydropyrazino[2,3-c]quinolin-5-yl)-N-methylbenzamide]
IC50 (KRAS G12D [1]): 1000 to 5000 nM | IC50 (KRAS G12D [2]): ≤ 100 nM | IC50 (KRAS G12V): ≤ 100 nM

N#CCCc1cc2c3c(c(OC[C@@]45CCCN4C[C@H](F)C5)nc2c(F)c1-c1cc(O)cc2ccccc12)NC(=O)CN3C1C2CNC1C2 (single isomer, unassigned) [Example 10a]
IC50 (KRAS G12D [1]): 1000 to 5000 nM | IC50 (KRAS G12D [2]): ≤ 100 nM | IC50 (KRAS G12V): ≤ 100 nM

N#CCCc1cc2c3c(c(OC[C@@]45CCCN4C[C@H](F)C5)nc2c(F)c1-c1cc(O)cc2ccccc12)NC(=O)CN3C1C2CNC1C2 (single isomer, unassigned) [Example 10b]
IC50 (KRAS G12D [1]): 1000 to 5000 nM | IC50 (KRAS G12D [2]): ≤ 100 nM | IC50 (KRAS G12V): ≤ 100 nM

C[C@@H](CN(C)C)Oc1nc2c(F)c(-c3cc(O)cc4ccccc34)c(CCC#N)cc2c2c1NC(=O)CN2C1C2CNC1C2 (single isomer, unassigned) [Example 11c]
IC50 (KRAS G12D [1]): 100 to 1000 nM | IC50 (KRAS G12D [2]): ≤ 100 nM | IC50 (KRAS G12V): ≤ 100 nM

CN1CCC[C@H]1COc1nc2c(F)c(-c3cc(O)cc4ccccc34)c(CCC#N)cc2c2c1CCCN2C1C2CNC1C2 (single isomer, unassigned) [Example 12b]
IC50 (KRAS G12D [1]): 100 to 1000 nM | IC50 (KRAS G12D [2]): ≤ 100 nM | IC50 (KRAS G12V): ≤ 100 nM

CN(C)C1CN(c2nc3c(F)c(-c4cc(O)cc5ccccc45)c(CCC#N)cc3c3c2NC(=O)CN3C2C3CNC2C3)C1 (single isomer, unassigned) [Example 13a, 3-(1-((endo)-2-Azabicyclo[2.1.1]hexan-5-yl)-5-(3-(dimethylamino)azetidin-1-yl)-7-fluoro-8-(3-hydroxynaphthalen-1-yl)-3-oxo-1,2,3,4-tetrahydropyrazino[2,3-c]quinolin-9-yl)propanenitrile]
IC50 (KRAS G12D [1]): 1000 to 5000 nM | IC50 (KRAS G12D [2]): ≤ 100 nM | IC50 (KRAS G12V): ≤ 100 nM

CC1Cc2c(OC[C@@H]3CCCN3C)nc3c(F)c(-c4cc(O)cc5ccccc45)c(CCC#N)cc3c2N(C2C3CNC2C3)C1 (single isomer, unassigned) [Example 14a]
IC50 (KRAS G12D [1]): 100 to 1000 nM | IC50 (KRAS G12D [2]): ≤ 100 nM | IC50 (KRAS G12V): ≤ 100 nM

CC1Cc2c(OC[C@@H]3CCCN3C)nc3c(F)c(-c4cc(O)cc5ccccc45)c(CCC#N)cc3c2N(C2C3CNC2C3)C1 (single isomer, unassigned) [Example 14b]
IC50 (KRAS G12D [1]): 1000 to 5000 nM | IC50 (KRAS G12D [2]): ≤ 100 nM | IC50 (KRAS G12V): ≤ 100 nM

C[C@H](Oc1nc2c(F)c(-c3cc(O)cc4ccccc34)c(CCC#N)cc2c2c1CCCN2C1C2CNC1C2)[C@@H]1CCCN1C (single isomer, unassigned) [Example 15b]
IC50 (KRAS G12D [1]): ≤ 100 nM | IC50 (KRAS G12D [2]): ≤ 100 nM | IC50 (KRAS G12V): ≤ 100 nM

C[C@@H](CN(C)C)Oc1nc2c(F)c(-c3cc(O)cc4ccccc34)c(CCC#N)cc2c2c1CCCN2C1C2CNC1C2 (single isomer, unassigned) [Example 16b]
IC50 (KRAS G12D [1]): 100 to 1000 nM | IC50 (KRAS G12D [2]): ≤ 100 nM | IC50 (KRAS G12V): ≤ 100 nM

C[C@H](Oc1nc2c(F)c(-c3cccc(Cl)c3Cl)c(CCC#N)cc2c2c1c(=O)c(-c1cnn(C)c1)cn2[C@H]1[C@H]2CN[C@@H]1C2)[C@@H]1CCCN1C (single isomer, unassigned) [Example 24a]
IC50 (KRAS G12D [1]): 5000 to 10000 nM | IC50 (KRAS G12D [2]): ≤ 100 nM | IC50 (KRAS G12V): ≤ 100 nM

C[C@H](Oc1nc2c(F)c(-c3cccc(Cl)c3Cl)c(CCC#N)cc2c2c1c(=O)c(N1CCCC1=O)cn2[C@H]1[C@H]2CN[C@@H]1C2)[C@@H]1CCCN1C (single isomer, unassigned) [Example 25]
IC50 (KRAS G12D [2]): ≤ 100 nM | IC50 (KRAS G12V): ≤ 100 nM

Cc1cc2c(nc(O[C@@H](C)[C@@H]3CCCN3C)c3c(=O)c(Nc4cnn(C)c4)cn([C@H]4[C@H]5CN[C@@H]4C5)c32)c(F)c1-c1cccc2c1C(C#N)CCC2 (single isomer, unassigned) [Example 26a]
IC50 (KRAS G12D [2]): ≤ 100 nM | IC50 (KRAS G12V): ≤ 100 nM
